Measurements as given in patent publication US20050143411A1, “Method for treating pulmonary disease” (Fujisawa Pharmaceutical Co., Ltd., priority 2003, published 2005).

Test system: cigarette smoke exposed guinea pigs
Assay: cigarette smoke-induced COPD model in guinea pigs; specific airway resistance (sRaw) by double body plethysmograph
Assay type: in vivo, Hartley guinea pigs
Protocol: The effect of the FK506 Substance on the cigarette smoke-induced COPD model in guinea pigs was confirmed in the following manner.
1. Hartley guinea pigs were exposed to cigarette smoke in a nose-only inhalation chamber for 60 min/day, 5 days/week, for 4 weeks. Animals of the negative control group were exposed to the air.
2. FK506 Substance in the form of a solid dispersion composition, which was prepared in a similar manner to that of Example 1 (above), or its placebo was given orally, after suspension in water, every day about 1 hr before the cigarette smoke exposure.
3. Specific airway resistance (sRaw) was measured as a respiratory function parameter at 0, 1, 2, 3 and 4 weeks after the start of cigarette smoke inhalation by a double body plethysmograph method (Ref. 1).
Reference • Ref. 1; Pennock B E, Cox C P, Rogers R M, Cain W A, Wells J H. A Noninvasive technique for measurement of changes in specific airway resistance. J Appl Physiol. 1979 February; 46(2):399-406. Results

**Q.** With C=CCC1C=C(C)CC(C)CC(OC)C2OC(O)(C(=O)C(=O)N3CCCCC3C(=O)OC(C(C)=CC3CCC(O)C(OC)C3)C(C)C(O)CC1=O)C(C)CC2OC (centres unmarked) [FK506, 17-allyl-1,14-dihydroxy-12-[2-(4-hydroxy-3-methoxycyclohexyl)-1-methylvinyl]-23,25-dimethoxy-13,19,21,27-tetramethyl-11,28-dioxa-4-azatricyclo[22.3.1.0^4,9]octacos-18-ene-2,3,10,16-tetraone] as the molecule, how does the sRaw (FK506 0.32 mg/kg orally every day, 1 week of cigarette smoke exposure) read?
**A.** 1.815 ± 0.073 cmH2O × mL/(mL/sec)

**Q.** What about the sRaw (FK506 0.32 mg/kg orally every day, 2 weeks of cigarette smoke exposure) of the same molecule?
**A.** 2.089 ± 0.054 cmH2O × mL/(mL/sec)

**Q.** What about the sRaw (FK506 0.32 mg/kg orally every day, 3 weeks of cigarette smoke exposure) of the same molecule?
**A.** 2.476 ± 0.112 cmH2O × mL/(mL/sec)

**Q.** And the sRaw (FK506 0.32 mg/kg orally every day, 4 weeks of cigarette smoke exposure)?
**A.** 2.636 ± 0.133 cmH2O × mL/(mL/sec)

**Q.** What about the sRaw (FK506 0.32 mg/kg orally every day, pre (0 weeks), n=8) of the same molecule?
**A.** 1.892 ± 0.048 cmH2O × mL/(mL/sec)

**Q.** What about the sRaw (FK506 1 mg/kg orally every day, 1 week of cigarette smoke exposure) of the same molecule?
**A.** 1.844 ± 0.123 cmH2O × mL/(mL/sec)

**Q.** And the sRaw (FK506 1 mg/kg orally every day, 2 weeks of cigarette smoke exposure)?
**A.** 2.012 ± 0.103 cmH2O × mL/(mL/sec)

**Q.** What about the sRaw (FK506 1 mg/kg orally every day, 3 weeks of cigarette smoke exposure) of the same molecule?
**A.** 2.372 ± 0.167 cmH2O × mL/(mL/sec)

**Q.** And the sRaw (FK506 1 mg/kg orally every day, 4 weeks of cigarette smoke exposure)?
**A.** 2.763 ± 0.276 cmH2O × mL/(mL/sec)

**Q.** And the sRaw (FK506 1 mg/kg orally every day, pre (0 weeks), n=8)?
**A.** 1.899 ± 0.064 cmH2O × mL/(mL/sec)

**Q.** And the “effect on decline of the respiratory function (increase of sRaw) caused by cigarette smoke” value (orally given, cigarette smoke exposed guinea pigs)?
**A.** significantly suppressed the decline of the respiratory function
